Molecular target: T1, Topo IV from S. aureus (ParE) (Staphylococcus aureus, UniProt P0C1S7)
T1 construct: purchased Inspiralis
Assay: Topoisomerase IV inhibitory assay (Inspiralis kit)
Assay type: biochemical
Conditions: staphylococcal Topo IV (ParE), mean of three experiments ± S.D.
Procedure: DNA gyrase (type II topoisomerase) and topoisomerase IV (Topo IV; ParE) introduce negative supercoils into DNA, utilizing ATP hydrolysis as a source of energy. They are considered essential bacterial regulatory enzymes that are absent in eukaryotes. Gyrase subunit B (Gyr-B) and Topo IV inhibitory activities were determined using the Inspiralis assay kit (Inspiralis®, UK) on streptavidin-coated 96-well microtiter plates (Thermo Scientific, Germany) according to the manufacturer’s protocols. The assay measures the ability of the tested compounds to inhibit the ATPase activity of both Gyr-B and ParE subunits. Briefly, the plates were hydrated with buffer (20 mM Tris-HCl with pH 7.6, 0.01% w/v BSA, 0.05% v/v Tween 20, 137 mM NaCl) and the biotinylated oligonucleotide was then immobilized. […] The produced fluorescence was measured using a microplate reader (BioTek Synergy, excitation: 485 nm, emission: 535 nm, Germany). […] The PK inhibitory activity of the tested compounds was determined according to the previously reported method. […] The PK activity was measured in a continuous assay coupled to lactate dehydrogenase (LDH) in which the change in absorbance at 340 nm owing to the oxidation of NADH was measured by the microplate reader. […] IC50 values in both assays were determined using seven concentrations of tested compounds. […]

IC50: 220 ± 10 nM
Structure (SMILES): CO[C@@H]1[C@@H](OC(N)=O)[C@@H](O)[C@H](Oc2ccc3c(O)c(NC(=O)c4ccc(O)c(CC=C(C)C)c4)c(=O)oc3c2C)OC1(C)C [Novobiocin]
